Reference: patent US10189830B2, “Alkyl-heteroaryl substituted quinone derivatives for treatment of oxidative stress disorders” (BioElectron Technology Corporation, priority 2013, dated 2019)
Where two headings read alike, the source gives them in different places.

Test system: Human dermal fibroblasts from Friedreich's Ataxia patients
Experiment: Rescue of BSO-stressed FRDA fibroblasts (Calcein AM viability screen)
Format: cell-based
Settings: FRDA fibroblasts GM04078, 1 mM BSO, 48 h
Method: An initial screen was performed to identify compounds effective for the amelioration of redox disorders. Test samples, 4 reference compounds (idebenone, decylubiquinone, Trolox and alpha-tocopherol), and solvent controls were tested for their ability to rescue FRDA fibroblasts stressed by addition of L-buthionine-(S,R)-sulfoximine (BSO), as described in Jauslin et al., Hum. Mol. Genet. 11(24):3055 (2002), Jauslin et al., FASEB J. 17:1972-4 (2003), and International Patent Application WO 2004/003565. […] This specific BSO-mediated cell death can be prevented by administration of antioxidants or molecules involved in the antioxidant pathway, such as alpha-tocopherol, selenium, or small molecule glutathione peroxidase mimetics. However, antioxidants differ in their potency, i.e. the concentration at which they are able to rescue BSO-stressed FRDA fibroblasts.
MEM (a medium enriched in amino acids and vitamins, catalog no. 1-31F24-I) and Medium 199 (M199, catalog no. 1-21F22-I) with Earle's Balanced Salts, without phenol red, were purchased from Bioconcept. Fetal Calf Serum was obtained from PAA Laboratories. Basic fibroblast growth factor and epidermal growth factor were purchased from PeproTech. Penicillin-streptomycin-glutamine mix, L-buthionine (S,R)-sulfoximine, (+)-alpha-tocopherol, decylubiquinone, and insulin from bovine pancreas were purchased from Sigma. Trolox (6-Hydroxy-2,5,7,8-tetramethylchromane-2-carboxylic acid) was obtained from Fluka. Idebenone was obtained from Chemo Iberica. Calcein AM was purchased from Anaspec. Cell culture medium was made by combining 125 ml M199 EBS, 50 ml Fetal Calf Serum, 100 U/ml penicillin, 100 microgram/ml streptomycin, 2 mM glutamine, 10 microgram/ml insulin, 10 ng/ml EGF, and 10 ng/ml bFGF; MEM EBS was added to make the volume up to 500 ml. A 10 mM BSO solution was prepared by dissolving 444 mg BSO in 200 ml of medium (Invitrogen, Carlsbad, Ca.) with subsequent filter-sterilization. During the course of the experiments, this solution was stored at +4° C. The cells were obtained from the Coriell Cell Repositories (Camden, N.J.; repository number GM04078) and grown in 10 cm tissue culture plates. Every third day, they were split at a 1:3 ratio.
The test samples were supplied in 1.5 ml glass vials. The compounds were diluted with DMSO, ethanol or PBS to result in a 5 mM stock solution. Once dissolved, they were stored at −20° C. Reference antioxidants (idebenone, decylubiquinone, alpha-tocopherol and Trolox) were dissolved in DMSO.
Test samples were screened according to the following protocol:
A culture with FRDA fibroblasts was started from a 1 ml vial with approximately 500,000 cells stored in liquid nitrogen. Cells were propagated in 10 cm cell culture dishes by splitting every third day in a ratio of 1:3 until nine plates were available. Once confluent, fibroblasts were harvested. For 54 micro titer plates (96 well-MTP) a total of 14.3 million cells (passage eight) were re-suspended in 480 ml medium, corresponding to 100 microliters medium with 3,000 cells/well. The remaining cells were distributed in 10 cm cell culture plates (500,000 cells/plate) for propagation. The plates were incubated overnight at 37° C. in a atmosphere with 95% humidity and 5% CO2 to allow attachment of the cells to the culture plate.
10% DMSO (242.5 microliters) was added to a well of the microtiter plate. The test compounds were unfrozen, and 7.5 microliters of a 5 mM stock solution was dissolved in the well containing 242.5 microliters of 10% DMSO, resulting in a 150 micromolar master solution. Serial dilutions from the master solution were made. The period between the single dilution steps was kept as short as possible (generally less than 30 seconds). At least 4 hours after attachment into MTP, cells were then treated with the various compound dilutions.
Plates were kept overnight in the cell culture incubator. […]

[1] = Homo sapiens, average, compounds of the invention, read-out: Ec50 Average
[2] = Homo sapiens, average of three values, control compounds, read-out: EC50 Average
[3] = Homo sapiens, first of three experiments, read-out: EC50 Value 1
[4] = Homo sapiens, second of three experiments, read-out: EC50 Value 2
[5] = Homo sapiens, third of three experiments, read-out: EC50 Value 3

| SMILES | EC50 [1] | further results |
| --- | --- | --- |
| CC1=C(C)C(=O)C(CCCc2nc3ccccc3n2C)=C(C)C1=O | 25 nM | – |
| CC1=C(C)C(=O)C(CCCc2nc3ccc(C(=O)N4CCN(C)CC4)cc3[nH]2)=C(C)C1=O | 92 nM | – |
| CC1=C(C)C(=O)C(CCCn2cncn2)=C(C)C1=O | 426 nM | – |
| CC1=C(C)C(=O)C(CCCc2nc3ccc(C(=O)NCCCO)cc3[nH]2)=C(C)C1=O | > 200 nM | – |
| CC1=C(C)C(=O)C(CCCc2nc3cccnc3[nH]2)=C(C)C1=O | 113 nM | – |
| CC1=C(C)C(=O)C(CCn2c(C)nc3ccccc32)=C(C)C1=O | 49 nM | – |
| CC1=C(C)C(=O)C(CCCc2nc3cc(C(F)(F)F)ccc3[nH]2)=C(C)C1=O | 8 nM | – |
| CC1=C(C)C(=O)C(CCCc2nc3ccccc3[nH]2)=C(C)C1=O | 14 nM | – |
| CC1=C(C)C(=O)C(CCCn2cnc3ccccc32)=C(C)C1=O | 21 nM | – |
| CC1=C(C)C(=O)C(CCc2nc3ccccc3[nH]2)=C(C)C1=O | 20 nM | – |
| CC1=C(C)C(=O)C(CCCc2nc3cccc(C)c3[nH]2)=C(C)C1=O | 7 nM | – |
| Cc1c(C)c2c(c(C)c1O)CC[C@@](C)(CCC[C@H](C)CCC[C@H](C)CCCC(C)C)O2 [alpha-tocopherol, (+)-alpha-tocopherol, reference compound] | – | EC50 (average of three values, control compounds, read-out: EC50 Average): 300 nM; EC50 (first of three experiments, read-out: EC50 Value 1): 400 nM; EC50 (second of three experiments, read-out: EC50 Value 2): 150 nM; EC50 (third of three experiments, read-out: EC50 Value 3): 350 nM |
| CCCCCCCCCCC1=C(C)C(=O)C(OC)=C(OC)C1=O [decylubiquinone, reference compound] | – | EC50 [2]: 38 nM; EC50 [3]: 50 nM; EC50 [4]: 35 nM; EC50 [5]: 30 nM |
| CC1=C(C)C(=O)C(CCCc2nc3ccc(F)cc3o2)=C(C)C1=O | 10 nM | – |
| CC1=C(C)C(=O)C(CCCc2nc3ccccc3o2)=C(C)C1=O | 20 nM | – |
| CC1=C(C)C(=O)C(CCCc2nc3ccccc3s2)=C(C)C1=O | 6 nM | – |
| CC1=C(C)C(=O)C(CCc2nc3ccccc3s2)=C(C)C1=O | 6 nM | – |

| SMILES | EC50 [1] | further results |
| --- | --- | --- |
| CC1=C(C)C(=O)C(CCCc2nc3cc(C)ccc3[nH]2)=C(C)C1=O | 21 nM | – |
| CC1=C(C)C(=O)C(CCc2ncc(C)s2)=C(C)C1=O | 27 nM | – |
| CC1=C(C)C(=O)C(CCCc2nc3cc(C(F)(F)F)ccc3o2)=C(C)C1=O | 27 nM | – |
| CC1=C(C)C(=O)C(CCCc2nc3ccc(Cl)cc3[nH]2)=C(C)C1=O | 6 nM | – |
| COC1=C(OC)C(=O)C(CCCCCCCCCCO)=C(C)C1=O [Idebenone, reference compound] | – | EC50 [2]: 1200 nM; EC50 [3]: 1500 nM; EC50 [4]: 1000 nM; EC50 [5]: 1000 nM |
| CC1=C(C)C(=O)C(CCc2nc3ccccc3o2)=C(C)C1=O | 18 nM | – |
| CC1=C(C)C(=O)C(CCCn2c(C)nc3ccccc32)=C(C)C1=O | 26 nM | – |
| CC1=C(C)C(=O)C(CCCc2nc3ccc(C)cc3o2)=C(C)C1=O | 7 nM | – |
| CC1=C(C)C(=O)C(CCCc2nc3ccc(F)cc3[nH]2)=C(C)C1=O | 29 nM | – |
| Cc1c(C)c2c(c(C)c1O)CCC(C)(C(=O)O)O2 (stereo not drawn) [Trolox, 6-Hydroxy-2,5,7,8-tetramethylchromane-2-carboxylic acid, reference compound] | – | EC50 [2]: 8700 nM; EC50 [3]: 9000 nM; EC50 [4]: 9000 nM; EC50 [5]: 8000 nM |
| CC1=C(C)C(=O)C(CCCc2nc3ccc(C(N)=O)cc3[nH]2)=C(C)C1=O | 80 nM | – |
| CC1=C(C)C(=O)C(CCCc2nc3cc(Cl)ccc3s2)=C(C)C1=O | 28 nM | – |
| CC1=C(C)C(=O)C(CCCc2nc3cc(F)ccc3[nH]2)=C(C)C1=O | 9 nM | – |
| CC1=C(C)C(=O)C(CCCc2nc3cccc(F)c3[nH]2)=C(C)C1=O | 18 nM | – |
| CC1=C(C)C(=O)C(CCc2ncc[nH]2)=C(C)C1=O | 225 nM | – |
| CC1=C(C)C(=O)C(CCn2cnc3ccccc32)=C(C)C1=O | 28 nM | – |
